Measurements from PMC5218480 (PLoS ONE, 2017).

Tested on: MV-4-11 cells
Test: Gene expression microarray analysis (Affymetrix PrimeView) and GSEA
Format: cell-based, human
Set-up: RFU PODN (11730768_x_at) / Fold change /veh PODN (11730768_x_at) / RFU LINC00158 (11744669_a_at) / Fold change /veh LINC00158 (11744669_a_at) / RFU DUSP10 (11751237_a_at) / Fold change /veh DUSP10 (11751237_a_at) / RFU ID3 (11757404_x_at) / Fold change /veh ID3 (11757404_x_at) / RFU PLEKHG5 (11737974_s_at) / Fold change /veh PLEKHG5 (11737974_s_at) / RFU LRRC4B (11730491_at) / Fold change /veh LRRC4B (11730491_at) / RFU GIMAP4 (11747438_a_at) / Fold change /veh GIMAP4 (11747438_a_at) / RFU KRT8 (11758183_x_at) / Fold change /veh KRT8 (11758183_x_at) / RFU CNN1 (11734310_a_at) / Fold change /veh CNN1 (11734310_a_at) / RFU VPS37D (11726825_at) / Fold change /veh VPS37D (11726825_at) / RFU C10orf10 (11716522_x_at) / Fold change /veh C10orf10 (11716522_x_at) / RFU KIR2DL2 /// KIR2DL4 /// KIR2DL5A /// KIR2DL5B /// KIR2DS1 /// KIR2DS2 /// KIR2DS3 /// KIR2DS4 /// KIR3DL3 /// KIR3DL3 /// KIR3DS1 (11738374_at) / Fold change /veh KIR2DL2 /// KIR2DL4 /// KIR2DL5A /// KIR2DL5B /// KIR2DS1 /// KIR2DS2 /// KIR2DS3 /// KIR2DS4 /// KIR3DL3 /// KIR3DL3 /// KIR3DS1 (11738374_at) / RFU C1QL1 (11718748_at) / Fold change /veh C1QL1 (11718748_at) / RFU TMPRSS4 (11747572_a_at) / Fold change /veh TMPRSS4 (11747572_a_at) / RFU HAMP (11756126_x_at) / Fold change /veh HAMP (11756126_x_at) / RFU RNFT2 (11725882_a_at) / Fold change /veh RNFT2 (11725882_a_at) / RFU NR4A2 (11747474_a_at) / Fold change /veh NR4A2 (11747474_a_at) / RFU ABCC12 (11746883_a_at) / Fold change /veh ABCC12 (11746883_a_at) / RFU TMEM136 (11760407_x_at) / Fold change /veh TMEM136 (11760407_x_at) / RFU CLDN22 /// WWC2 (11732394_at) / Fold change /veh CLDN22 /// WWC2 (11732394_at) / RFU HLA-DPB1 (11760878_x_at) / Fold change /veh HLA-DPB1 (11760878_x_at) / RFU SPINT1 (11716480_a_at) / Fold change /veh SPINT1 (11716480_a_at) / RFU GAP43 (11754022_s_at) / Fold change /veh GAP43 (11754022_s_at) / RFU A4GNT (11735810_at) / Fold change /veh A4GNT (11735810_at) / RFU PRB3 (11715151_x_at) / Fold change /veh PRB3 (11715151_x_at) / RFU TUBB4B (11761932_at) / Fold change /veh TUBB4B (11761932_at) / RFU CAPN14 (11732068_a_at) / Fold change /veh CAPN14 (11732068_a_at) / RFU TMCC2 (11721928_a_at) / Fold change /veh TMCC2 (11721928_a_at) / RFU IRGQ (11745062_a_at) / Fold change /veh IRGQ (11745062_a_at) / RFU FAM174B (11720279_a_at) / Fold change /veh FAM174B (11720279_a_at) / RFU TMPRSS4 (11748680_a_at) / Fold change /veh TMPRSS4 (11748680_a_at) / RFU FAM212B (11763350_a_at) / Fold change /veh FAM212B (11763350_a_at) / RFU PLEKHG5 (11743358_a_at) / Fold change /veh PLEKHG5 (11743358_a_at) / RFU ZSCAN30 (11745921_a_at) / Fold change /veh ZSCAN30 (11745921_a_at) / RFU CMKLR1 (11741424_a_at) / Fold change /veh CMKLR1 (11741424_a_at) / RFU LOC101060620 /// MAPK8IP1 (11723275_at) / Fold change /veh LOC101060620 /// MAPK8IP1 (11723275_at) / RFU SPTSSB (11747773_x_at) / Fold change /veh SPTSSB (11747773_x_at) / RFU PRSS12 (11739890_at) / Fold change /veh PRSS12 (11739890_at) / RFU BIN1 (11741810_x_at) / Fold change /veh BIN1 (11741810_x_at) / RFU WNT11 (11732464_a_at) / Fold change /veh WNT11 (11732464_a_at) / RFU C10orf10 (11716521_a_at) / Fold change /veh C10orf10 (11716521_a_at) / RFU C5orf56 (11738089_at) / Fold change /veh C5orf56 (11738089_at) / RFU CYB561 (11721691_x_at) / Fold change /veh CYB561 (11721691_x_at) / RFU ANKRD19P (11752326_a_at) / Fold change /veh ANKRD19P (11752326_a_at) / RFU OR2T12 /// OR2T33 /// OR2T8 (11738714_s_at) / Fold change /veh OR2T12 /// OR2T33 /// OR2T8 (11738714_s_at) / RFU VCAN (11748164_a_at) / Fold change /veh VCAN (11748164_a_at) / RFU JSRP1 (11732532_at) / Fold change /veh JSRP1 (11732532_at) / RFU KRTAP10-11 (11738290_x_at) / Fold change /veh KRTAP10-11 (11738290_x_at) / RFU MYO3A (11730013_a_at) / Fold change /veh MYO3A (11730013_a_at) / RFU EBF3 (11725865_a_at) / Fold change /veh EBF3 (11725865_a_at) / RFU CAMK2N1 (11719241_x_at) / Fold change /veh CAMK2N1 (11719241_x_at) / RFU C5orf56 (11738088_a_at) / Fold change /veh C5orf56 (11738088_a_at) / RFU OLFML3 (11715873_a_at) / Fold change /veh OLFML3 (11715873_a_at) / RFU LOC100653217 /// NTM (11731650_a_at) / Fold change /veh LOC100653217 /// NTM (11731650_a_at) / RFU MAPK11 (11762145_a_at) / Fold change /veh MAPK11 (11762145_a_at) / RFU FIZ1 (11724087_x_at) / Fold change /veh FIZ1 (11724087_x_at) / RFU OASL (11726364_x_at) / Fold change /veh OASL (11726364_x_at) / RFU SOX15 (11748057_x_at) / Fold change /veh SOX15 (11748057_x_at) / RFU CD79A (11719716_a_at) / Fold change /veh CD79A (11719716_a_at) / RFU HIST1H1D (11736915_at) / Fold change /veh HIST1H1D (11736915_at) / RFU CASKIN2 (11723855_a_at) / Fold change /veh CASKIN2 (11723855_a_at) / RFU LOC730098 (11760151_x_at) / Fold change /veh LOC730098 (11760151_x_at) / RFU OR4N2 (11742367_at) / Fold change /veh OR4N2 (11742367_at) / RFU PRRT2 (11749266_a_at) / Fold change /veh PRRT2 (11749266_a_at) / RFU SNX32 (11753110_a_at) / Fold change /veh SNX32 (11753110_a_at) / RFU CDHR5 (11726645_a_at) / Fold change /veh CDHR5 (11726645_a_at) / RFU RCAN1 (11760418_a_at) / Fold change /veh RCAN1 (11760418_a_at) / RFU FAM167A (11723789_a_at) / Fold change /veh FAM167A (11723789_a_at) / RFU FAM26E (11764081_at) / Fold change /veh FAM26E (11764081_at) / RFU ISYNA1 (11749810_s_at) / Fold change /veh ISYNA1 (11749810_s_at) / RFU ACY1 (11761880_at) / Fold change /veh ACY1 (11761880_at) / RFU 11764098_at / Fold change /veh 11764098_at / RFU SAMD14 (11745864_x_at) / Fold change /veh SAMD14 (11745864_x_at) / RFU NPB (11741838_a_at) / Fold change /veh NPB (11741838_a_at) / RFU TMPRSS6 (11731388_a_at) / Fold change /veh TMPRSS6 (11731388_a_at) / RFU KRTAP10-2 (11738614_at) / Fold change /veh KRTAP10-2 (11738614_at) / RFU ARHGAP8 /// PRR5-ARHGAP8 (11727945_x_at) / Fold change /veh ARHGAP8 /// PRR5-ARHGAP8 (11727945_x_at) / RFU KRTAP5-7 /// NADSYN1 (11734609_at) / Fold change /veh KRTAP5-7 /// NADSYN1 (11734609_at) / RFU RASL12 (11751679_a_at) / Fold change /veh RASL12 (11751679_a_at) / RFU CDKN2B (11736163_a_at) / Fold change /veh CDKN2B (11736163_a_at) / RFU PRF1 (11729649_at) / Fold change /veh PRF1 (11729649_at) / RFU, ZNF638 /// ZNF638-IT1 / Fold change vs veh, ZNF638 /// ZNF638-IT1 / RFU, PANK3 / Fold change vs veh, PANK3 / RFU, SH3YL1 / Fold change vs veh, SH3YL1 / RFU, ZEB2 / Fold change vs veh, ZEB2 / RFU, NRIP1 / Fold change vs veh, NRIP1 / RFU, PTTG1IP / Fold change vs veh, PTTG1IP / RFU, CAPN2 / Fold change vs veh, CAPN2 / RFU, MED14 / Fold change vs veh, MED14 / RFU, SNORA58 / Fold change vs veh, SNORA58 / RFU, C1orf63 / Fold change vs veh, C1orf63 / RFU, LRRFIP1 / Fold change vs veh, LRRFIP1 / RFU, NDUFAF7 / Fold change vs veh, NDUFAF7 / RFU, SLC12A2 / Fold change vs veh, SLC12A2 / RFU, IBTK / Fold change vs veh, IBTK / RFU, ESF1 / Fold change vs veh, ESF1 / Fold change vs veh, TMEM50B / RFU, TAOK1 / Fold change vs veh, TAOK1 / RFU, ACBD3 / Fold change vs veh, ACBD3 / RFU, TMA16 / Fold change vs veh, TMA16 / RFU, RWDD3 / Fold change vs veh, RWDD3 / RFU, BCAT1 / Fold change vs veh, BCAT1 / RFU, EDEM3 / Fold change vs veh, EDEM3 / RFU, TMEM33 / Fold change vs veh, TMEM33 / RFU, WDR75 / Fold change vs veh, WDR75 / RFU, AHCTF1 / Fold change vs veh, AHCTF1 / RFU, TFRC / Fold change vs veh, TFRC / RFU, ZDHHC17 / Fold change vs veh, ZDHHC17 / RFU, NOM1 / Fold change vs veh, NOM1 / RFU, ARL8B / Fold change vs veh, ARL8B / RFU, ZBTB11 / Fold change vs veh, ZBTB11 / RFU, TAMM41 / Fold change vs veh, TAMM41 / RFU, KIAA1704 /// LOC100996395 / Fold change vs veh, KIAA1704 /// LOC100996395 / RFU, ING1 / Fold change vs veh, ING1 / RFU, TRMT61B / Fold change vs veh, TRMT61B / RFU, FUBP3 / Fold change vs veh, FUBP3 / RFU, TP53 / Fold change vs veh, TP53 / RFU, TNKS2 / Fold change vs veh, TNKS2 / RFU, ZFP14 / Fold change vs veh, ZFP14 / RFU, ACTR2 / Fold change vs veh, ACTR2 / RFU, PPP3R1 / Fold change vs veh, PPP3R1 / RFU, PIK3R1 / Fold change vs veh, PIK3R1 / RFU, HNRNPA1 / Fold change vs veh, HNRNPA1 / RFU, RNF170 / Fold change vs veh, RNF170 / RFU, ZNF28 / Fold change vs veh, ZNF28 / RFU, RNGTT / Fold change vs veh, RNGTT / RFU, OGT / Fold change vs veh, OGT / RFU, BRD1 / Fold change vs veh, BRD1 / RFU, MARS / Fold change vs veh, MARS / RFU, ZNF655 / Fold change vs veh, ZNF655 / RFU, FAHD1 / Fold change vs veh, FAHD1 / RFU, BDP1 / Fold change vs veh, BDP1 / RFU, LRRCC1 / Fold change vs veh, LRRCC1 / RFU, ARID1A / Fold change vs veh, ARID1A / RFU, ZNF146 / Fold change vs veh, ZNF146 / RFU, ZNF330 / Fold change vs veh, ZNF330 / RFU, GPN3 / Fold change vs veh, GPN3 / RFU, C9orf123 / Fold change vs veh, C9orf123 / RFU, N4BP2L2 / Fold change vs veh, N4BP2L2 / RFU, ARFIP1 / Fold change vs veh, ARFIP1 / RFU, FAM179B / Fold change vs veh, FAM179B / RFU, BCL10 / Fold change vs veh, BCL10 / RFU, UHRF1BP1L / Fold change vs veh, UHRF1BP1L / RFU, BET1 / Fold change vs veh, BET1 / RFU, CNOT2 / Fold change vs veh, CNOT2 / RFU, ZNF268 / Fold change vs veh, ZNF268 / Fold change vs veh, ZNF507 / RFU, DGCR2 / Fold change vs veh, DGCR2 / RFU, WDSUB1 / Fold change vs veh, WDSUB1 / Fold change vs veh, HSP90B1 /// MIR3652 / RFU, ADSS / Fold change vs veh, ADSS / RFU, GK / Fold change vs veh, GK / RFU, ZNF148 / Fold change vs veh, ZNF148 / RFU, TAF9 / Fold change vs veh, TAF9 / RFU, SLC1A5 / Fold change vs veh, SLC1A5 / RFU, SLMO2 / Fold change vs veh, SLMO2 / RFU, ABCC4 / Fold change vs veh, ABCC4 / RFU, LOC101060439 /// RAP1B / Fold change vs veh, LOC101060439 /// RAP1B / RFU, RFX7 / Fold change vs veh, RFX7 / RFU, GTPBP10 / Fold change vs veh, GTPBP10 / RFU, CNEP1R1 / Fold change vs veh, CNEP1R1 / RFU, BIVM-ERCC5 /// ERCC5 / Fold change vs veh, BIVM-ERCC5 /// ERCC5 / RFU, ILF3 / Fold change vs veh, ILF3 / RFU 11762660_at / Fold change /veh 11762660_at / RFU VCAN (11757783_s_at) / Fold change /veh VCAN (11757783_s_at) / RFU DDX43 (11728927_at) / Fold change /veh DDX43 (11728927_at) / RFU KRT8 (11758188_x_at) / Fold change /veh KRT8 (11758188_x_at) / RFU NKD1 (11759106_at) / Fold change /veh NKD1 (11759106_at) / RFU SRD5A1 (11742802_a_at) / Fold change /veh SRD5A1 (11742802_a_at) / RFU TPSAB1 /// TPSB2 (11721975_s_at) / Fold change /veh TPSAB1 /// TPSB2 (11721975_s_at) / RFU GSTM3 (11746129_a_at) / Fold change /veh GSTM3 (11746129_a_at) / RFU IL23R (11737362_x_at) / Fold change /veh IL23R (11737362_x_at) / RFU TMEM51 (11727254_a_at) / Fold change /veh TMEM51 (11727254_a_at) / RFU PIWIL2 (11732686_x_at) / Fold change /veh PIWIL2 (11732686_x_at) / RFU ORM1 (11744905_x_at) / Fold change /veh ORM1 (11744905_x_at) / RFU CCDC152 (11743942_at) / Fold change /veh CCDC152 (11743942_at) / RFU ECM1 (11717891_a_at) / Fold change /veh ECM1 (11717891_a_at) / RFU IL23R (11748794_a_at) / Fold change /veh IL23R (11748794_a_at) / RFU TNFAIP8L3 (11732012_x_at) / Fold change /veh TNFAIP8L3 (11732012_x_at) / RFU MBOAT4 (11741988_at) / Fold change /veh MBOAT4 (11741988_at) / RFU 11764193_at / Fold change /veh 11764193_at / RFU TMEM53 (11763286_at) / Fold change /veh TMEM53 (11763286_at) / RFU MAGEB2 (11727129_at) / Fold change /veh MAGEB2 (11727129_at) / RFU TMEM200A (11744735_a_at) / Fold change /veh TMEM200A (11744735_a_at) / RFU CCDC152 (11751479_a_at) / Fold change /veh CCDC152 (11751479_a_at) / RFU FAM211A (11726209_a_at) / Fold change /veh FAM211A (11726209_a_at) / RFU RGS16 (11746705_a_at) / Fold change /veh RGS16 (11746705_a_at) / RFU VCAN (11755009_s_at) / Fold change /veh VCAN (11755009_s_at) / RFU RHOB (11743442_s_at) / Fold change /veh RHOB (11743442_s_at) / RFU RGS16 (11720943_a_at) / Fold change /veh RGS16 (11720943_a_at) / RFU RGS16 (11720944_at) / Fold change /veh RGS16 (11720944_at) / RFU, VPS4B / Fold change vs veh, VPS4B / RFU, CREB1 / Fold change vs veh, CREB1 / RFU, DNAJC13 / Fold change vs veh, DNAJC13 / RFU, GNAQ / Fold change vs veh, GNAQ / RFU, CDK5R1 / Fold change vs veh, CDK5R1 / RFU, ZRANB3 / Fold change vs veh, ZRANB3 / RFU, CUL4A / Fold change vs veh, CUL4A / RFU, CCNY / Fold change vs veh, CCNY / RFU, UFL1 / Fold change vs veh, UFL1 / RFU, COG3 / Fold change vs veh, COG3 / RFU, DIAPH2 / Fold change vs veh, DIAPH2 / RFU, SKA2 / Fold change vs veh, SKA2 / RFU, AFF3 / Fold change vs veh, AFF3 / RFU, LMF1 / Fold change vs veh, LMF1 / RFU, IPO11 / Fold change vs veh, IPO11 / RFU, DFFB / Fold change vs veh, DFFB / RFU, FOXP1 / Fold change vs veh, FOXP1 / RFU, CARD8 / Fold change vs veh, CARD8 / RFU, STRN3 / Fold change vs veh, STRN3 / RFU, ADK / Fold change vs veh, ADK / RFU, RASSF2 / Fold change vs veh, RASSF2 / RFU, WIPF1 / Fold change vs veh, WIPF1 / RFU, LARP1B / Fold change vs veh, LARP1B / RFU, RASA1 / Fold change vs veh, RASA1 / RFU, RB1 / Fold change vs veh, RB1 / RFU, PPFIA1 / Fold change vs veh, PPFIA1 / RFU, MAT2A / Fold change vs veh, MAT2A / RFU, CCT5 / Fold change vs veh, CCT5 / RFU, WDR92 / Fold change vs veh, WDR92 / RFU, CUX1 / Fold change vs veh, CUX1 / RFU, TTC7A / Fold change vs veh, TTC7A / RFU, TMEM135 / Fold change vs veh, TMEM135 / RFU, DEPTOR / Fold change vs veh, DEPTOR / RFU, CPM / Fold change vs veh, CPM / RFU, DNAJB6 / Fold change vs veh, DNAJB6 / RFU, CACNA2D3 / Fold change vs veh, CACNA2D3 / RFU, DTX4 / Fold change vs veh, DTX4 / RFU, TFCP2 / Fold change vs veh, TFCP2 / RFU, GMCL1 /// GMCL1P1 / Fold change vs veh, GMCL1 /// GMCL1P1 / RFU, AEBP2 / Fold change vs veh, AEBP2 / RFU, SNHG1 /// SNORD22 /// SNORD25 /// SNORD26 /// SNORD27 /// SNORD28 /// SNORD29 /// SNORD31 / Fold change vs veh, SNHG1 /// SNORD22 /// SNORD25 /// SNORD26 /// SNORD27 /// SNORD28 /// SNORD29 /// SNORD31 / Fold change (Aza/veh), C12orf56 (ProbeSet 11735607_a_at) / Fold change (ACY-1035/veh), C12orf56 (ProbeSet 11735607_a_at) / Fold change (Aza/veh), FGFR1OP (ProbeSet 11751329_s_at) / Fold change (ACY-1035/veh), FGFR1OP (ProbeSet 11751329_s_at) / Fold change (Aza/veh), VPS36 (ProbeSet 11739960_a_at) / Fold change (ACY-1035/veh), VPS36 (ProbeSet 11739960_a_at) / RFU SYPL1 (11715823_x_at) / Fold change /veh SYPL1 (11715823_x_at) / RFU IGFBP7 (11715501_s_at) / Fold change /veh IGFBP7 (11715501_s_at) / RFU REEP3 (11722064_at) / Fold change /veh REEP3 (11722064_at) / RFU IGLL1 (11728026_x_at) / Fold change /veh IGLL1 (11728026_x_at): dose or concentration left out as unconfirmed
Conditions: ProbeSet 11728314_at; LIST B

Nc1ccc(-c2cccs2)cc1NC(=O)c1ccc2c(c1)cc(C1CC1)n2CCN1CCOCC1 [ACY-1035]
RFU, ZNF148: 188.07 RFU
